Measurements reported in patent publication US7439372B2, “Therapeutic compounds” (Allergan, Inc., priority 2006, dated 2008).

Legend:
Assay type in all cases: cell-based
hEP2/Gqs5 = biological target: T1, hEP2/Gqs5 (Homo sapiens, UniProt P43116); assay: FLIPR calcium signal, HEK-293(EBNA) cells expressing hEP2/Gqs5; details: value outside parentheses, read-out: Ca2+ Signal-EC50(nM) EP2
T1 construct: expressed in transfected cells; host or cells: HEK-293(EBNA)
Method: (§1) HEK-293(EBNA) cells, stably expressing one type or subtype of recombinant human prostaglandin receptors (prostaglandin receptors expressed: hDP/Gqs5; hEP1; hEP2/Gqs5; hEP3A/Gqi5; hEP4/Gqs5; hFP; hIP; hTP), were cultured in 100 mm culture dishes in high-glucose DMEM medium containing 10% fetal bovine serum, 2 mM l-glutamine, 250 µg/ml geneticin (G418) and 200 μg/ml hygromycin B as selection markers, and 100 units/ml penicillin G, 100 µg/ml streptomycin and 0.25 μg/ml amphotericin B.
(§2) Cells were seeded at a density of 5×10^4 cells per well in Biocoat® Poly-D-lysine-coated black-wall, clear-bottom 96-well plates (Becton-Dickinson) and allowed to attach overnight in an incubator at 37° C. Cells were then washed two times with HBSS-HEPES buffer (Hanks Balanced Salt Solution without bicarbonate and phenol red, 20 mM HEPES, pH 7.4) using a Denley Cellwash plate washer (Labsystems). After 45 minutes of dye-loading in the dark, using the calcium-sensitive dye Fluo-4 […] at a final concentration of 2 μM, plates were washed four times with HBSS-HEPES buffer to remove excess dye leaving 100 μl in each well. Plates were re-equilibrated to 37° C. for a few minutes.
(§3) Cells were excited with an Argon laser at 488 nm, and emission was measured through a 510-570 nm bandwidth emission filter (FLIPR™, Molecular Devices, Sunnyvale, Calif.). Drug solution was added in a 50 µl volume to each well to give the desired final concentration. The peak increase in fluorescence intensity was recorded for each well. On each plate, four wells each served as negative (HBSS-HEPES buffer) and positive controls (standard agonists: BW245C (hDP); PGE2 (hEP1; hEP2/Gqs5; hEP3A/Gqi5; hEP4/Gqs5); PGF2α (hFP); carbacyclin (hIP); U-46619 (hTP), depending on receptor). The peak fluorescence change in each drug-containing well was then expressed relative to the controls.
(§4) Compounds were tested in a high-throughput (HTS) or concentration-response (CoRe) format. In the HTS format, forty-four compounds per plate were examined in duplicates at a concentration of 10^−5 M. To generate concentration-response curves, four compounds per plate were tested in duplicates in a concentration range between 10^−5 and 10^−11 M. The duplicate values were averaged. In either, HTS or CoRe format each compound was tested on at least 3 separate plates using cells from different passages to give an n≧3.

hEP3A/Gqi5 = biological target: T2, hEP3A/Gqi5 (Homo sapiens, UniProt P43115); assay: FLIPR calcium signal, HEK-293(EBNA) cells expressing hEP3A/Gqi5; details: for EC50: read-out: Ca2+ Signal-EC50(nM) EP3
T2 construct: expressed in transfected cells; host or cells: HEK-293(EBNA)
T2 sequence (P43115 1-390): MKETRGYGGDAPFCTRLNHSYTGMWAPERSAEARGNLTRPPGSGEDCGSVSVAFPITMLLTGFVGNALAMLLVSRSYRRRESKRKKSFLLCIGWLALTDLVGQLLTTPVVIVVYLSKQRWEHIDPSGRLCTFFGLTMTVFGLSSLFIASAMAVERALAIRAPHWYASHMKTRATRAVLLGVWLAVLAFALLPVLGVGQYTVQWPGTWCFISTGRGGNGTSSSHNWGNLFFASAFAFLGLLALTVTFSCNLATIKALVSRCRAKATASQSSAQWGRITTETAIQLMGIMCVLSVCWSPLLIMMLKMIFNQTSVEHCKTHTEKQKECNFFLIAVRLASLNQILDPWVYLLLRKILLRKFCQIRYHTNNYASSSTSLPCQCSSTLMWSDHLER
Method: as §1, §2, §3, §4

hEP1 = biological target: T3, hEP1 (Homo sapiens, UniProt P34995); assay: FLIPR calcium signal, HEK-293(EBNA) cells expressing hEP1
T3 construct: expressed in transfected cells; host or cells: HEK-293(EBNA)
T3 sequence (P34995 1-402): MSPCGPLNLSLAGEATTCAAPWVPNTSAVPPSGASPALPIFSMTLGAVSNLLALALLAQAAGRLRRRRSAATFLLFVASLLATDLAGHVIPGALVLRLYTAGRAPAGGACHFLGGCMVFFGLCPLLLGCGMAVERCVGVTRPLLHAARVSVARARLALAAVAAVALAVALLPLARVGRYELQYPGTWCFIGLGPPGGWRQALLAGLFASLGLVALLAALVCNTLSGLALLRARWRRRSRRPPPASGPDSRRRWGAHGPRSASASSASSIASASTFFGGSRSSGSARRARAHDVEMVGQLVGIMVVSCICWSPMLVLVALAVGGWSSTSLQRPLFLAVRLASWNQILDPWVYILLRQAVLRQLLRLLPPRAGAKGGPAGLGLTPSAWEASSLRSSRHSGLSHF
Method: as §1, §2, §3, §4

hTP = biological target: T4, hTP (Homo sapiens, UniProt P21731); assay: FLIPR calcium signal, HEK-293(EBNA) cells expressing hTP
T4 construct: expressed in transfected cells; host or cells: HEK-293(EBNA)
T4 sequence (P21731 1-343): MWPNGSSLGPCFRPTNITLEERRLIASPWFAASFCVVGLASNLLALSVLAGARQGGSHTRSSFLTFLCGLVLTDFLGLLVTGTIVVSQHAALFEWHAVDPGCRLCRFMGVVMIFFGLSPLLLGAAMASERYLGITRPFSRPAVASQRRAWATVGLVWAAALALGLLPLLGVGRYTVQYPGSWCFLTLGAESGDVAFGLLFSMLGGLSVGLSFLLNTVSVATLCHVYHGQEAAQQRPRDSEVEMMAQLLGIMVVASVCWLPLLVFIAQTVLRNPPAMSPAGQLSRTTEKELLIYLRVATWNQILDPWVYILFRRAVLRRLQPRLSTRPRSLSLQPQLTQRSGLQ
Method: as §1, §2, §3, §4

hEP4/Gqs5 = biological target: T5, hEP4/Gqs5 (Homo sapiens, UniProt P35408); assay: FLIPR calcium signal, HEK-293(EBNA) cells expressing hEP4/Gqs5; details: for EC50: read-out: Ca2+ Signal-EC50(nM) EP4
T5 construct: expressed in transfected cells; host or cells: HEK-293(EBNA)
Method: as §1, §2, §3, §4

hIP = biological target: T6, hIP (Homo sapiens, UniProt P43119); assay: FLIPR calcium signal, HEK-293(EBNA) cells expressing hIP
T6 construct: expressed in transfected cells; host or cells: HEK-293(EBNA)
Method: as §1, §2, §3, §4

T6 sequence (P43119 whole entry): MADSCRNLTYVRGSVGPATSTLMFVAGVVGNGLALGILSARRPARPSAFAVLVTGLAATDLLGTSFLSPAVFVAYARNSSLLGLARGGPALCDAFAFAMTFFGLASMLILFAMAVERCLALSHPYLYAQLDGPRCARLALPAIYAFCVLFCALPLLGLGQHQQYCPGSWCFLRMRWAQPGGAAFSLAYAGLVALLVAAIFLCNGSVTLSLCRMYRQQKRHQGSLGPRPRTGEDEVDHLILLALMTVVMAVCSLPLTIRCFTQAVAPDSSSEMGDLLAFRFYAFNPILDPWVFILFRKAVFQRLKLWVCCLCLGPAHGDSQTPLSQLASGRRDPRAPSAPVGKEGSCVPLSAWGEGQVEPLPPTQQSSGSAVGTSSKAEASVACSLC
T5 sequence (P35408 whole entry): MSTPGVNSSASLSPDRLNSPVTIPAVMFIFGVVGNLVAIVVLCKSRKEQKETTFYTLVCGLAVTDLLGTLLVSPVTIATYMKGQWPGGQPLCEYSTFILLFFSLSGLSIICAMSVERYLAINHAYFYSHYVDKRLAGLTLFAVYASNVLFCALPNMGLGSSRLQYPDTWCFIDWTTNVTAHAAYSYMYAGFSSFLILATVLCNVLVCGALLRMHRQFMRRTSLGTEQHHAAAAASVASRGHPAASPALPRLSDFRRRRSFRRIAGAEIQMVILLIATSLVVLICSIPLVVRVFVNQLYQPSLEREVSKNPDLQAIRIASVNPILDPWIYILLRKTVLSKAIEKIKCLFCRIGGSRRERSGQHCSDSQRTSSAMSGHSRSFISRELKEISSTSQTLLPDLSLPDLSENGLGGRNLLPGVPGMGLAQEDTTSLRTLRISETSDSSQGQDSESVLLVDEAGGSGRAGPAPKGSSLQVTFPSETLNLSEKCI
T1 sequence (P43116 whole entry): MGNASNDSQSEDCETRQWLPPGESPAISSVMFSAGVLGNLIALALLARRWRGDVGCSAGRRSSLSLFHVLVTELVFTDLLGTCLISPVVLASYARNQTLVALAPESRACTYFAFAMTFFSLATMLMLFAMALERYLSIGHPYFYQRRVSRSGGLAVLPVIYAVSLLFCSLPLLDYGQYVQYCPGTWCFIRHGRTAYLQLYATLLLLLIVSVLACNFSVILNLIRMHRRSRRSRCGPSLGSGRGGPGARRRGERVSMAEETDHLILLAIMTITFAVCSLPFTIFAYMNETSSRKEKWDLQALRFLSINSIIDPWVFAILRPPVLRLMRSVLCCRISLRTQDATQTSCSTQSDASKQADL

Compound | EC50 (hEP2/Gqs5) [nM] | EC50 (hEP3A/Gqi5) [nM] | Ca2+ Signal-EC50(nM) EP1 (hEP1) | Ca2+ Signal-EC50(nM) TP (hTP) | EC50 (hEP4/Gqs5) [nM] | Ca2+ Signal-EC50(nM) IP (hIP) | Ca2+ Signal-EC50(nM) EP3 (hEP3A/Gqi5) | Ca2+ Signal-EC50(nM) EP4 (hEP4/Gqs5)
CCCCCC(O)c1ccc([C@H]2C(=O)CC[C@@H]2C/C=C\CCCC(=O)O)cc1 (stereo partly drawn) [compound 5] | 381 | 4420 | notactive | notactive |  | notactive |  | notactive
CCCCCC(O)c1ccc([C@@H]2[C@@H](C/C=C\CCCC(=O)O)CC[C@H]2Cl)cc1 (stereo partly drawn) [compound 6] | 731 | 182 | notactive | notactive |  | notactive |  | notactive
CCCCCC(O)c1ccc([C@@H]2[C@@H](C/C=C\CCCC(=O)O)CC[C@H]2O)cc1 (stereo partly drawn) [compound 7] | 2510 | 3480 | notactive | notactive | > 10000 | notactive |  | 

The next lines start with the values.

EC50 (hEP2/Gqs5) [nM] | EC50 (hEP3A/Gqi5) [nM] | Ca2+ Signal-EC50(nM) EP1 (hEP1) | Ca2+ Signal-EC50(nM) TP (hTP) | EC50 (hEP4/Gqs5) [nM] | Ca2+ Signal-EC50(nM) IP (hIP) | Ca2+ Signal-EC50(nM) EP3 (hEP3A/Gqi5) | Ca2+ Signal-EC50(nM) EP4 (hEP4/Gqs5) | Compound
62 | 8780 | notactive | notactive | > 10000 | notactive |  |  | CCCCCC(O)c1ccc([C@H]2C(=O)CC[C@@H]2CCCc2ccc(C(=O)O)s2)cc1 (stereo partly drawn) [compound 1]
25 |  | notactive | notactive |  | notactive | notactive | notactive | CCCCCC(O)c1ccc([C@H]2C(=O)CC[C@@H]2CCCc2ccc(C(=O)O)s2)cc1 (stereo partly drawn) [compound 2]
1620 |  | notactive | notactive |  | notactive | notactive | notactive | CCCCCC(O)c1ccc([C@@H]2[C@@H](CCCc3ccc(C(=O)O)s3)CCC2(Cl)Cl)cc1 (stereo partly drawn) [compound 3]
208 | 4550 | notactive | notactive | > 10000 | notactive |  |  | CCCCCC(O)c1ccc([C@H]2C(=O)C=C[C@@H]2CCCc2ccc(C(=O)O)s2)cc1 (stereo partly drawn) [compound 11]
